# Literature values as cited in patent US5858398A, “Microparticular pharmaceutical compositions” (Isomed Inc., priority 1996, dated 1999).
# System: intestinal membranes
substance,measurement,value
sn-1-acyl-3-glycerophosphorylcholine [lyso-PC],concentrations inducing histopathological damage to intestinal membranes,0.01-1 mM
